Laboratory results published in publication PMC7958898 (Journal of Medicinal Chemistry, 2021).
Residue numbers refer to the chain shown, from its start.

Experiments:
hCCR2b [1] = target: T1, hCCR2b (Homo sapiens, UniProt P41597); test: [3H]-CCR2-RA displacement assay, U2OS-CCR2 membranes; settings: ratio of apparent Ki to Ki of compound 7
T1 sequence (P41597 1-360 isoform P41597-2): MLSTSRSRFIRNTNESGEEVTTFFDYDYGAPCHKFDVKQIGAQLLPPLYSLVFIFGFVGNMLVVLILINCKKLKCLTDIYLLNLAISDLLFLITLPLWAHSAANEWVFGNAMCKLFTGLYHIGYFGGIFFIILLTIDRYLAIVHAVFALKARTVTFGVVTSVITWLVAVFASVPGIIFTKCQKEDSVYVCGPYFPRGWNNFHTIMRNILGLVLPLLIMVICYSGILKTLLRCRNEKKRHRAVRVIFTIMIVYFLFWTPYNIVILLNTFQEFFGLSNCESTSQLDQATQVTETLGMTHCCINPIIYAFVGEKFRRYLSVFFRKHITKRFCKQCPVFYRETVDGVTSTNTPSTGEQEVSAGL

[2] = Stability under radioligand binding assay conditions; format: physicochemical
hCCR2b [3] = target: T1, hCCR2b; test: NanoBiT β-arrestin1 recruitment assay in live HEK293t cells; settings: unwashed control vs [35S]GTPγS binding assay
[4] = target: T2, CCR2 triple mutant C70S/C75S/C232S (Homo sapiens, UniProt P41597, C232S/C70S/C75S); test: [3H]-CCR2-RA-[R] washout assay, CHO membranes, CCR2 triple mutant; settings: 160 nM 14, four wash cycles
T2 sequence (P41597 1-360 isoform P41597-2 C70S/C75S/C232S): T1 sequence (P41597 1-360 isoform P41597-2) with C70S, C75S, C232S

| time compound remained intact in assay buffer ([2]; 25 μM, 50 mM Tris-HCl pH 7.4, 5 mM MgCl2, 0.1% CHAPS, room temperature, data not shown) | stability at higher concentration and temperature ([2]; 1 mM compound, 37 °C, over 4 h) | higher potency in β-arrestin recruitment than in [35S]GTPγS binding assay (hCCR2b [3]) [fold] | Structure (SMILES) | loss/reduction of affinity compared to compound 7 (hCCR2b [1]) [fold] | [3H]-CCR2-RA-[R] binding after washout [4] |
| --- | --- | --- | --- | --- | --- |
|  |  |  | O=C(NCCN=C=S)c1ccc(Oc2ccc(Cl)cc2NS(=O)(=O)c2ccc(Cl)c(C(F)(F)F)c2)cc1 [Compound 11, 4-(4-Chloro-2-((4-chloro-3-(trifluoromethyl)phenyl)sulfonamido)phenoxy)-N-(2-isothiocyanatoethyl)benzamide] | 5 |  |
|  |  |  | O=C(NCCNC(=O)c1ccc(S(=O)(=O)F)cc1)c1ccc(Oc2ccc(Cl)cc2NS(=O)(=O)c2ccc(Cl)c(C(F)(F)F)c2)cc1 [Compound 13, 4-((2-(4-(4-Chloro-2-((4-chloro-3-(trifluoromethyl)phenyl)sulfonamido)phenoxy)benzamido)ethyl)carbamoyl)benzenesulfonyl Fluoride] | 15 |  |
| over 6 h | gradual degradation | 8 | N#CSCCNC(=O)c1ccc(Oc2ccc(Cl)cc2NS(=O)(=O)c2ccc(Cl)c(C(F)(F)F)c2)cc1 [Compound 14, 4-(4-Chloro-2-((4-chloro-3-(trifluoromethyl)phenyl)sulfonamido)phenoxy)-N-(2-thiocyanatoethyl)benzamide] |  | recovered to levels comparable to compound 7 |
